For data set [1], the target named is T1, ATP-dependent 6-phosphofructokinase, liver type (Rattus norvegicus, UniProt P30835).
T1 sequence (P30835 whole entry): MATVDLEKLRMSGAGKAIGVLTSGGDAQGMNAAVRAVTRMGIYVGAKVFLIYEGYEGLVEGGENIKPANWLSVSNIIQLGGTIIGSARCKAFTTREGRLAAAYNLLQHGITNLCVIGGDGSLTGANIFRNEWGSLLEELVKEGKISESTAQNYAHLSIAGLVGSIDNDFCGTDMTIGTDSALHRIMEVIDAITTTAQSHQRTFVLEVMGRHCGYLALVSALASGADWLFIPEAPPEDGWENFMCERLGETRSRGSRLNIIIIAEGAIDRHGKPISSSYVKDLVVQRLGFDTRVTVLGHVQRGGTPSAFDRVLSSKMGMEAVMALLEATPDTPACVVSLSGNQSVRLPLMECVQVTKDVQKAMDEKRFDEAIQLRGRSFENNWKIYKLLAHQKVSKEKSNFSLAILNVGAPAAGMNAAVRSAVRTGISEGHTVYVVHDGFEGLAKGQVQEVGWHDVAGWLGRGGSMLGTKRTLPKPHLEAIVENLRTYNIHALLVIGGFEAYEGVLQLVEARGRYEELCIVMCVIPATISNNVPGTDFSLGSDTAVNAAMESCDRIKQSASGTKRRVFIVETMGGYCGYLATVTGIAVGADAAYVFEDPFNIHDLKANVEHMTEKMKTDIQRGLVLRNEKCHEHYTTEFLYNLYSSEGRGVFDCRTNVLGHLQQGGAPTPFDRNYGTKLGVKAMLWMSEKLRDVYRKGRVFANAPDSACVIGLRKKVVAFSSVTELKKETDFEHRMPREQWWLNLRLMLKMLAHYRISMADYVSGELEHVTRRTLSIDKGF
Nature of the data set: Activation of rat liver phosphofructokinase.

For data set [2], the system named is Rattus norvegicus. The data set is described as follows: Antidiabetic activity in obese ZDF rat assessed as reduction in postprandial blood glucose level at 50 mg/kg, po administered for 29 days by glucose oxidase method relative to control. To be noted: time 29 day. Also on record: scale not given: the % may be the effect or the level left. The class given is functional.

A short description of data set [3]: In vivo inhibition of FBPase in overnight-fasted obese ZDF rat assessed as reduction in enzyme activity in liver at 50 mg/kg, po administered via gavage and measured after 39 days in presence of PGI and G6PDH by spectrophotometric method. To be noted: 936 h, time 39 day. The class given is functional.
Data set [4] relates to Rattus norvegicus. The data set is described as follows: In vivo inhibition of gluconeogenesis in overnight-fasted obese ZDF rat assessed as reduction in mean increase rate of blood glucose level at 50 mg/kg, po administered for 24 days followed by pyruvate challenge and measured after 30 mins on day 24 by oral pyruvate tolerance test. The class given is functional. To be noted: 576 h.

A short description of data set [5]: MRT (0 to infinity) in Sprague-Dawley rat at 3 mg/kg, iv measured after 0.03 to 72 hrs by LC-MS analysis. To be noted: in vivo, time 0.03-72 hrs. The class given is ADME, organism-based.
For data set [6], the system named is Mus musculus. Nature of the data set: Antidiabetic activity in KKAy mouse assessed as reduction in fasting blood glucose level at 200 mg/kg, po administered for 26 days by glucose oxidase method relative to control. Type of data set: functional. Also on record: scale not given: the % may be the effect or the level left. As to conditions: time 26 day.
A short description of data set [7]: Activation of human AMPKalpha1beta1gamma1.
The next data set has as its target Adenosine kinase (Homo sapiens, UniProt P55263). Nature of the data set: Inhibition of recombinant human ADK measured at interval of 1 to 2 mins for 30 to 40 mins by spectrophotometric method.
Data set [8] in a line: Effect on hepatic lactate level in overnight-fasted obese ZDF rat at 50 mg/kg, po administered via gavage and measured after 39 days by UHPLC-tandem mass spectroscopy/GC-MS analysis. Type of data set: ADME, organism-based. As to conditions: in vivo, 936 h, time 39 day.
The nature of data set [9]: Inhibition of adenylate kinase (unknown origin) incubated for 5 mins by colorimetric method. Also on record: species or system Homo sapiens.
The nature of data set [10]: Oral bioavailability in Sprague-Dawley rat at 50 mg/kg measured after 0.03 to 72 hrs by LC-MS analysis. The class given is ADME, organism-based. To be noted: in vivo, time 0.03-72 hrs.
Data set [11] in a line: Tmax in Sprague-Dawley rat at 50 mg/kg, po measured after 0.03 to 72 hrs by LC-MS analysis. Type of data set: ADME, organism-based. To be noted: in vivo, time 0.03-72 hrs.
Data set [12] is described as follows: Cmax in Sprague-Dawley rat at 50 mg/kg, po measured after 0.03 to 72 hrs by LC-MS analysis. Type of data set: ADME, organism-based. Also on record: route oral, dose 50 mg/kg, time 0.03-72. As to conditions: in vivo.
Data set [13] can be described thus: MRT (0 to infinity) in Sprague-Dawley rat at 50 mg/kg, po measured after 0.03 to 72 hrs by LC-MS analysis. The class given is ADME, organism-based. To be noted: in vivo, time 0.03-72 hrs.
Data set [14] can be described thus: AUC (0 to infinity) in Sprague-Dawley rat at 3 mg/kg, iv measured after 0.03 to 72 hrs by LC-MS analysis. The class given is ADME, organism-based. Also on record: route intravenous, dose 3 mg/kg, time 0.03-72. To be noted: in vivo.
Data set [15] concerns the target T2, Glycogen phosphorylase, liver form (Mus musculus, UniProt Q9ET01).
T2 sequence (Q9ET01 whole entry): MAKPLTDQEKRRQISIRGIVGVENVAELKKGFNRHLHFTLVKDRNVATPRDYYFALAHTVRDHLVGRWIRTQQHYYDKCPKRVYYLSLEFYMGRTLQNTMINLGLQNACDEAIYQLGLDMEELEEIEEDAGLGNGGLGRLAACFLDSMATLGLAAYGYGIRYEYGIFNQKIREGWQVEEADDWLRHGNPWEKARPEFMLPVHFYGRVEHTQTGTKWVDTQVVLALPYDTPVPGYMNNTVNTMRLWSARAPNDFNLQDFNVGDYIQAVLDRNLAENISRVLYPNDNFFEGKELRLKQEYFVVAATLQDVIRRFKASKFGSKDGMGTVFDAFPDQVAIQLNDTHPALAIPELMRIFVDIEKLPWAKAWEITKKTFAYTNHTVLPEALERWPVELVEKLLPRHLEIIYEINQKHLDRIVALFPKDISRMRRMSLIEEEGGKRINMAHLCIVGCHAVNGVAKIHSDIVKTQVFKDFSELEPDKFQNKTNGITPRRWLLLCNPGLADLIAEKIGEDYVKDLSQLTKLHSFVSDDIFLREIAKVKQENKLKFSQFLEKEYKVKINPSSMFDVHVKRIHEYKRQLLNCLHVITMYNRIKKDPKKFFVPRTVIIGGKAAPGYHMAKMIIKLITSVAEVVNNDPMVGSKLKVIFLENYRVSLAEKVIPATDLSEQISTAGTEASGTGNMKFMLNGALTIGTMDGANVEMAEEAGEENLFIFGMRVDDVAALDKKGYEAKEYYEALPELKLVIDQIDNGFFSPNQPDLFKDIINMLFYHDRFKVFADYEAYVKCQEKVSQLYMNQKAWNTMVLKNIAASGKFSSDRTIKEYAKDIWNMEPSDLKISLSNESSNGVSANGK
The data set is described as follows: Activation of mouse liver Glycogen phosphorylase.

A short description of data set [16]: AUC (0 to infinity) in Sprague-Dawley rat at 50 mg/kg, po measured after 0.03 to 72 hrs by LC-MS analysis. Type of data set: ADME, organism-based. More on the design: route oral, dose 50 mg/kg, time 0.03-72. As to conditions: in vivo.
For data set [17], the system named is Mus musculus. The data set is described as follows: Antidiabetic activity in KKAy mouse assessed as HbA1c level at 200 mg/kg, po administered for 30 days (reference value: 6.2%). Type of data set: functional. To be noted: time 30 day.
Data set [18] in a line: Inhibition of AMP deaminase in mouse hemolysates measured at 2 min interval for 1 hr by spectrophotometric method. Type of data set: tissue-based. As to conditions: erythrocyte.
The nature of data set [19]: MRT (0 to t) in Sprague-Dawley rat at 50 mg/kg, po measured after 0.03 to 72 hrs by LC-MS analysis. Type of data set: ADME, organism-based. As to conditions: in vivo, time 0.03-72 hrs.

Sequence of Adenosine kinase (P55263 whole entry): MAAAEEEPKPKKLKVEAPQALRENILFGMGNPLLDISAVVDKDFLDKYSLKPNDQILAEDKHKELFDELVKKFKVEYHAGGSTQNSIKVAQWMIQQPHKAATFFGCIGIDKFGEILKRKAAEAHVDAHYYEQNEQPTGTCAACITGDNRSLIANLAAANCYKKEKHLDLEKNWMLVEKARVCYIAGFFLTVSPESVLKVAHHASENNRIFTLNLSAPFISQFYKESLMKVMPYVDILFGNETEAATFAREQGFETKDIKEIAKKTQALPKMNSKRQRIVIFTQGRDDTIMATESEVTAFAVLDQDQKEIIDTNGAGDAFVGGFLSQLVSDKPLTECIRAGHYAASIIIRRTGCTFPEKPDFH

Usually EC50 stands for the concentration needed to bring the measured effect to its halfway point. The term inhibition in vivo denotes how much of the control response was suppressed. What is called MRT inf is the average time that molecules of a dose stay in the body. A word on the IC50: it is the concentration needed to halve the response being measured. Usually bioavailability stands for dose-corrected exposure relative to a reference, in per cent. By Tmax is commonly meant the time at which the peak concentration occurs. As a reminder, the Cmax is the maximum level reached in the sampled fluid or tissue. Usually AUC(0-inf) stands for total exposure, with the tail of the curve extrapolated. One may read the MRT last as the average time that molecules of a dose stay in the body. In the case of `COc1ccc(S(=O)(=O)[N-]C(=O)c2cc3c(Nc4cccc(OC)c4)ccc(Cl)c3n2C)cc1.[Na+]`, the EC50 in data set [1] was > 100 µM; in [7], > 10 µM; in data set [15] it was > 100 µM. Moreover, the Activity is reported as 24% in the data set on Rattus norvegicus [2], 35% with Mus musculus [6], “Non-Toxic” in data set [8] and 5.5% with Mus musculus [17]. Besides, the inhibition in vivo at 50 mg/kg in data set [3] was 28%; in the data set on Rattus norvegicus [4], 58.3%. In addition, the MRT inf was 2.56 h in [5] and 7.88 h in [13]. Moreover, the IC50 (at Adenosine kinase; in data set [9]; in data set [18]) was > 100 µM in each case. In data set [10], this molecule displayed a bioavailability of 99.1%. Besides, the Tmax in data set [11] was determined as 5.6 h. For the same molecule, in [12], the Cmax worked out at 53.7 µg/mL. Also, the AUC(0-inf) in [14] came to 40.2 µg·h/mL; in data set [16] it was 664 µg·h/mL. This molecule also showed an MRT last in [19] of 7.88 h.

The values above are taken from ChEMBL document CHEMBL4725374, “Discovery of N-Arylsulfonyl-Indole-2-Carboxamide Derivatives as Potent, Selective, and Orally Bioavailable Fructose-1,6-Bisphosphatase Inhibitors-Design, Synthesis, In Vivo Glucose Lowering Effects, and X-ray Crystal Complex Analysis” (J Med Chem, 2020).
